Values after ≈ are worked out from the molar mass of the structure shown. Where a name gives a salt, the structure may show the parent alone. Read-outs that look alike come from different tables or passages of the source.
Assays:
S. aureus Smith = test: In vitro antibacterial activity, MIC (standard strain); type: cell-based, Staphylococcus aureus; details: Staphylococcus aureus, S. aureus Smith, 10^6 cells/ml, standard strain
[1] = test system: Streptococcus pyogenes S-8; test: as above; type: cell-based; details: S8; Streptococcus pyogenes S-8; 10^6 cells/ml; standard strain; read-out: MIC
S. pyogenes IID 692 = test: as above; type: cell-based; details: Streptococcus pyogenes, IID692; S. pyogenes IID 692; 10^6 cells/ml; standard strain; read-out: MIC
S. pneumoniae IID 552 = test: as above; type: cell-based; details: Streptococcus pneumoniae, IID552; S. pneumoniae IID 552; 10^6 cells/ml; standard strain; read-out: MIC
[2] = test system: Escherichia coli NIHJ JC-2; test: as above; type: cell-based; details: Escherichia coli, NIHJJC2, Escherichia coli NIHJ JC-2; 10^6 cells/ml; standard strain; read-out: MIC
[3] = test system: Proteus vulgaris IFO 3167; test: as above; type: cell-based; details: IFO3167
P. mirabilis IID 994 = test: as above; type: cell-based; details: Proteus mirabilis, IID994
[4] = test system: Klebsiella pneumoniae KY(GN)6445; test: as above; type: cell-based; details: Klebsiella pneumoniae KY(GN)6445; 10^6 cells/ml; standard strain; read-out: MIC
K. pneumoniae 1-220S = test: as above; type: cell-based; details: Klebsiella pneumoniae, 1220S; K. pneumoniae 1-220S; 10^6 cells/ml; standard strain; read-out: MIC
[5] = test system: Salmonella entritidis IID 604; test: as above; type: cell-based; details: IID604; Salmonella entritidis IID 604; 10^6 cells/ml; standard strain; read-out: MIC
[6] = test system: Yersinia enterocolitica IID 981; test: as above; type: cell-based; details: IID981; Yersinia enterocolitica IID 981; 10^6 cells/ml; standard strain; read-out: MIC
[7] = test system: Serratia marcescens IID 618; test: as above; type: cell-based; details: Serratia marcescens, IID618, Serratia marcescens IID 618; 10^6 cells/ml; standard strain; read-out: MIC
S. marcescens GN 7577 = test: as above; type: cell-based; details: Serratia marcescens, GN7577; S. marcescens GN 7577; 10^6 cells/ml; standard strain; read-out: MIC
[8] = test system: Pseudomonas aeruginosa V-1; test: as above; type: cell-based; details: V1; Pseudomonas aeruginosa V-1; 10^6 cells/ml; standard strain; read-out: MIC
[9] = test system: Acinetobacter anitratus IID 876; test: as above; type: cell-based; details: Acinetobacter calcoaceticus, IID876, Acinetobacter anitratus IID 876; 10^6 cells/ml; standard strain; read-out: MIC
B. fragilis 0558 = test: as above; type: cell-based, Bacteroides fragilis; details: Bacteroides fragilis, 0558, B. fragilis 0558; 10^6 cells/ml; standard strain; read-out: MIC
C. ramosum = test: as above; type: cell-based; details: Thomasclavelia ramosa; C. ramosum; 10^6 cells/ml; standard strain; read-out: MIC
S. pneumoniae 15 = test: In vitro antibacterial activity, MIC (clinical isolates); type: cell-based; details: Streptococcus pneumoniae; S. pneumoniae 15; 10^6 cells/ml; clinical isolate; read-out: MIC
S. pneumoniae 2950 = test: as above; type: cell-based; details: Streptococcus pneumoniae; S. pneumoniae 2950; 10^6 cells/ml; clinical isolate; read-out: MIC
S. pyogenes 3102 = test: as above; type: cell-based; details: Streptococcus pyogenes; S. pyogenes 3102; 10^6 cells/ml; clinical isolate; read-out: MIC
S. pyogenes 3107 = test: as above; type: cell-based; details: Streptococcus pyogenes; S. pyogenes 3107; 10^6 cells/ml; clinical isolate; read-out: MIC
S. pyogenes 4340 = test: as above; type: cell-based; details: Streptococcus pyogenes; S. pyogenes 4340; 10^6 cells/ml; clinical isolate; read-out: MIC
S. agalactiae 4394 = test: as above; type: cell-based; details: Streptococcus agalactiae; S. agalactiae 4394; 10^6 cells/ml; clinical isolate; read-out: MIC
S. agalactiae 4049 = test: as above; type: cell-based; details: Streptococcus agalactiae; S. agalactiae 4049; 10^6 cells/ml; clinical isolate; read-out: MIC
S. agalactiae 4342 = test: as above; type: cell-based; details: Streptococcus agalactiae; S. agalactiae 4342; 10^6 cells/ml; clinical isolate; read-out: MIC
S. agalactiae 4368 = test: as above; type: cell-based; details: Streptococcus agalactiae; S. agalactiae 4368; 10^6 cells/ml; clinical isolate; read-out: MIC
S. agalactiae 4468 = test: as above; type: cell-based; details: Streptococcus agalactiae; S. agalactiae 4468; 10^6 cells/ml; clinical isolate; read-out: MIC
S. faecalis 49 = test: as above; type: cell-based; details: Enterococcus faecalis; S. faecalis 49; 10^6 cells/ml; clinical isolate; read-out: MIC
S. faecalis 214 = test: as above; type: cell-based; details: Enterococcus faecalis; S. faecalis 214; 10^6 cells/ml; clinical isolate; read-out: MIC
S. faecalis 401 = test: as above; type: cell-based; details: Enterococcus faecalis; S. faecalis 401; 10^6 cells/ml; clinical isolate; read-out: MIC
S. faecalis 402 = test: as above; type: cell-based; details: Enterococcus faecalis; S. faecalis 402; 10^6 cells/ml; clinical isolate; read-out: MIC
[10] = Proteus vulgaris IFO 3167, 10^6 cells/ml, standard strain, read-out: MIC
[11] = P. mirabilis IID 994, 10^6 cells/ml, standard strain, read-out: MIC

Row | Compound | MIC [1] [µg/mL] | MIC (S. pyogenes IID 692) [µg/mL] | MIC (S. pneumoniae IID 552) [µg/mL] | MIC [2] [µg/mL] | MIC [4] [µg/mL] | MIC (K. pneumoniae 1-220S) [µg/mL] | MIC [5] [µg/mL] | MIC [6] [µg/mL] | MIC [7] [µg/mL] | MIC (S. marcescens GN 7577) [µg/mL] | MIC [8] [µg/mL] | MIC [9] [µg/mL] | MIC (B. fragilis 0558) [µg/mL] | MIC (C. ramosum) [µg/mL] | MIC (S. pneumoniae 15) [µg/mL] | MIC (S. pneumoniae 2950) [µg/mL] | MIC (S. pyogenes 3102) [µg/mL] | MIC (S. pyogenes 3107) [µg/mL] | MIC (S. pyogenes 4340) [µg/mL] | MIC (S. agalactiae 4394) [µg/mL] | further results
1 | CCCNCC1CCN(c2c(F)cc3c(=O)c(C(=O)O)cn(C4CC4)c3c2F)C1 (stereo not drawn) [Example 10, 1-Cyclopropyl-6,8-difluoro-1,4-dihydro-4-oxo-7-(3-n-propylaminomethyl-l-pyrrolidinyl)-3-quinolinecarboxylic acid hydrochloride] | 0.39 | 0.39 | 0.39 | 0.05 | 0.05 | 0.2 | 0.1 | 0.1 | 0.2 | 3.13 | 1.56 | 0.05 | 0.78 | 1.56 | 0.39 | 0.39 | 0.2 | 0.2 | 0.2 | 0.78 | MIC (S. aureus Smith; read-out: MIC): 0.05 µg/mL; MIC [3, 10]: 0.025 µg/mL; MIC (P. mirabilis IID 994; [11]): 0.025 µg/mL; MIC (S. agalactiae 4049): 0.78 µg/mL; MIC (S. agalactiae 4342): 0.2 µg/mL; MIC (S. agalactiae 4368): 0.39 µg/mL; MIC (S. agalactiae 4468): 0.39 µg/mL; MIC (S. faecalis 49): 0.39 µg/mL; MIC (S. faecalis 214): 0.39 µg/mL; MIC (S. faecalis 401): 0.78 µg/mL; MIC (S. faecalis 402): 0.39 µg/mL
2 | CC(C)NCC1CCN(c2c(F)cc3c(=O)c(C(=O)O)cn(C4CC4)c3c2F)C1.Cl (stereo not shown) [Example 11, 1-Cyclopropyl-6,8-difluoro-1,4-dihydro-7-(3-isopropylaminomethyl-1-pyrrolidinyl)-4-oxo-3-quinolinecarboxylic acid hydrochloride] | 0.2 | 0.2 | 0.39 | 0.05 | 0.1 | 0.2 | 0.2 | 0.2 | 0.39 | 3.13 | 1.56 | 0.1 | 0.78 | 0.78 | 0.2 | 0.2 | 0.2 | 0.2 | 0.2 | 0.39 | MIC (S. aureus Smith; read-out: MIC): 0.05 µg/mL; MIC [3, 10]: 0.05 µg/mL; MIC (P. mirabilis IID 994; [11]): 0.1 µg/mL; MIC (S. agalactiae 4049): 0.39 µg/mL; MIC (S. agalactiae 4342): 0.2 µg/mL; MIC (S. agalactiae 4368): 0.2 µg/mL; MIC (S. agalactiae 4468): 0.2 µg/mL; MIC (S. faecalis 49): 0.2 µg/mL; MIC (S. faecalis 214): 0.39 µg/mL; MIC (S. faecalis 401): 0.39 µg/mL; MIC (S. faecalis 402): 0.39 µg/mL
3 | NCC1CCN(c2c(F)cc3c(=O)c(C(=O)O)cn(C4CC4)c3c2Br)C1 (stereo not drawn) [Example 15, 7-(3-Aminomethyl-l-pyrrolidinyl)-8-bromo-l-cyclopropyl-6-fluoro-1,4-dihydro-4-oxo-3-quinolinecarboxylic acid] | 0.05 (≈ 0.118 µM) | 0.05 (≈ 0.118 µM) | 0.05 (≈ 0.118 µM) | ≤ 0.0063 | 0.025 (≈ 0.0589 µM) | 0.05 (≈ 0.118 µM) | 0.025 (≈ 0.0589 µM) | 0.05 (≈ 0.118 µM) | 0.1 (≈ 0.236 µM) | 0.78 (≈ 1.84 µM) | 0.1 (≈ 0.236 µM) | 0.05 (≈ 0.118 µM) | ≤ 0.05 | 0.39 (≈ 0.919 µM) | 0.05 (≈ 0.118 µM) | 0.05 (≈ 0.118 µM) | 0.05 (≈ 0.118 µM) | 0.05 (≈ 0.118 µM) | 0.05 (≈ 0.118 µM) | 0.2 (≈ 0.471 µM) | MIC (S. aureus Smith): 0.0125 µg/mL (≈ 0.0295 µM); MIC ([3]; Proteus vulgaris): 0.0125 µg/mL (≈ 0.0295 µM); MIC (P. mirabilis IID 994): 0.0125 µg/mL (≈ 0.0295 µM); MIC (S. agalactiae 4049): 0.05 µg/mL (≈ 0.118 µM); MIC (S. agalactiae 4342): 0.1 µg/mL (≈ 0.236 µM); MIC (S. agalactiae 4368): 0.05 µg/mL (≈ 0.118 µM); MIC (S. agalactiae 4468): 0.05 µg/mL (≈ 0.118 µM); MIC (S. faecalis 49): 0.2 µg/mL (≈ 0.471 µM); MIC (S. faecalis 214): 0.2 µg/mL (≈ 0.471 µM); MIC (S. faecalis 401): 0.2 µg/mL (≈ 0.471 µM); MIC (S. faecalis 402): 0.2 µg/mL (≈ 0.471 µM)
4 | CNCC1CCN(c2c(F)cc3c(=O)c(C(=O)O)cn(C4CC4)c3c2Br)C1 (stereo not drawn) [Example 16, 8-Bromo-1-cyclopropyl-6-fluoro-1,4-dihydro-7-(3-methylaminomethyl-l-pyrrolidinyl)-4-oxo-3-quinolinecarboxylic acid] | 0.05 (≈ 0.114 µM) | 0.1 (≈ 0.228 µM) | 0.05 (≈ 0.114 µM) | 0.0125 (≈ 0.0285 µM) | 0.05 (≈ 0.114 µM) | 0.1 (≈ 0.228 µM) | 0.05 (≈ 0.114 µM) | 0.1 (≈ 0.228 µM) | 0.1 (≈ 0.228 µM) | 0.78 (≈ 1.78 µM) | 0.2 (≈ 0.456 µM) | 0.05 (≈ 0.114 µM) | 0.1 (≈ 0.228 µM) | 0.39 (≈ 0.89 µM) | 0.05 (≈ 0.114 µM) | 0.05 (≈ 0.114 µM) | 0.05 (≈ 0.114 µM) | 0.05 (≈ 0.114 µM) | 0.05 (≈ 0.114 µM) | 0.1 (≈ 0.228 µM) | MIC (S. aureus Smith; read-out: MIC): 0.0125 µg/mL (≈ 0.0285 µM); MIC [3, 10]: 0.025 µg/mL (≈ 0.057 µM); MIC (P. mirabilis IID 994; [11]): 0.025 µg/mL (≈ 0.057 µM); MIC (S. agalactiae 4049): 0.05 µg/mL (≈ 0.114 µM); MIC (S. agalactiae 4342): 0.05 µg/mL (≈ 0.114 µM); MIC (S. agalactiae 4368): 0.05 µg/mL (≈ 0.114 µM); MIC (S. agalactiae 4468): 0.05 µg/mL (≈ 0.114 µM); MIC (S. faecalis 49): 0.1 µg/mL (≈ 0.228 µM); MIC (S. faecalis 214): 0.1 µg/mL (≈ 0.228 µM); MIC (S. faecalis 401): 0.1 µg/mL (≈ 0.228 µM); MIC (S. faecalis 402): 0.1 µg/mL (≈ 0.228 µM)

— patent publication EP0183129A1, “Quinolonecarboxylic acid derivatives” (KYORIN PHARMACEUTICAL CO., LTD., priority 1984, dated 1986)
